A short description of this experiment: Concentration required for cleaving the supercoiled DNA at pH 8. In kind it is functional.

The compound `C[n+]1c(C#Cc2ccccc2)n(CC#Cc2ccccc2)c2ccccc21` came in with a Concentration of 100 µM.

(Values after ChEMBL document CHEMBL1132807, “Synthesis of a heterocyclic aza-enediyne and its DNA-cleavage properties” (Bioorg Med Chem Lett, 2000).)
